Literature values, collected in US12193471B2, “Aerosolizable formulation” (NICOVENTURES TRADING LIMITED, priority 2018, dated 2025).

Settings: compared to base cyclodextrins such as β-cyclodextrin

2-hydroxy-propyl-β-cyclodextrin
solubility in water: increased solubility in water
